Test results reported in US9522907B2, “Anticancer agent and process for the preparation thereof” (COUNCIL OF SCIENTIFIC & INDUSTRIAL RESEARCH, priority 2014, dated 2016).

Key:
Experiment in all cases: cells
Type in all cases: cell-based
[1] = test system: Non-small-cell lung cancer cell lines; settings: Homo sapiens; Non-small-cell lung; average of cell lines of the cancer type; read-out: Log10 GI50 mean graph midpoint (MG_MID) (converted)
Excerpt: (§1) The mean graph midpoint values of Log10 GI50 as well as Log10 LC50 for the compounds 2i, 5i and Hoechst 33258 (NSC-322921) is listed in Table 2.
(§2) Each cancer type represents the average of six to eight different cancer cell lines.

Renal cancer cell lines = settings: Homo sapiens
Excerpt: as §1, §2

[2] = test system: Ovarian cancer cell lines; settings: Homo sapiens
Excerpt: as §1, §2

Colon cancer cell lines = settings: Homo sapiens; Colon; average of cell lines of the cancer type; read-out: Log10 GI50 mean graph midpoint (MG_MID) (converted)
Excerpt: as §1, §2

[3] = test system: Leukemia cancer cell lines; settings: Homo sapiens; Leukemia; average of cell lines of the cancer type; read-out: Log10 GI50 mean graph midpoint (MG_MID) (converted)
Excerpt: as §1, §2

[4] = test system: Melanoma cancer cell lines; settings: Homo sapiens; Melanoma; average of cell lines of the cancer type; read-out: Log10 GI50 mean graph midpoint (MG_MID) (converted)
Excerpt: as §1, §2

CNS cancer cell lines = settings: Homo sapiens
Excerpt: as §1, §2

[5] = test system: Prostate cancer cell lines; settings: Homo sapiens
Excerpt: as §1, §2

Breast cancer cell lines = settings: Homo sapiens
Excerpt: as §1, §2

[6] = read-out: Log10 LC50 mean graph midpoint (MG_MID) (converted)

CN1CCN(c2ccc3nc(-c4ccc5nc(-c6ccc(O)cc6)[nH]c5c4)[nH]c3c2)CC1 [Hoechst 33258, reference compound]
GI50 [1]: 115 µM | CC50 (Renal cancer cell lines; [6]): 1.26 mM | GI50 (Renal cancer cell lines; Renal, average of cell lines of the cancer type, read-out: Log10 GI50 mean graph midpoint (MG_MID) (converted)): 166 µM | CC50 [2, 6]: 1.2 mM | GI50 ([2]; Ovarian, average of cell lines of the cancer type, read-out: Log10 GI50 mean graph midpoint (MG_MID) (converted)): 195 µM | GI50 (Colon cancer cell lines): 79.4 µM | GI50 [3]: 18.6 µM | GI50 [4]: 25.1 µM | CC50 (CNS cancer cell lines; [6]): 1.32 mM | GI50 (CNS cancer cell lines; CNS, average of cell lines of the cancer type, read-out: Log10 GI50 mean graph midpoint (MG_MID) (converted)): 132 µM | CC50 [5, 6]: 1.41 mM | GI50 ([5]; Prostate, average of cell lines of the cancer type, read-out: Log10 GI50 mean graph midpoint (MG_MID) (converted)): 631 µM | CC50 (Breast cancer cell lines; [6]): 1.45 mM | GI50 (Breast cancer cell lines; Breast, average of cell lines of the cancer type, read-out: Log10 GI50 mean graph midpoint (MG_MID) (converted)): 21.4 µM
